Data published in the NIST ThermoML archive (doi:10.1021/je050052+).

Assay: excess molar enthalpy (molar enthalpy of mixing); xn = mol fraction of the nth substance listed
Details: Liquid, Flow calorimetry

COC(=O)OC [dimethyl carbonate] + CC(C)O
Details | excess molar enthalpy [kcal/mol]
298.15 K, 1000 kPa, x1 = 0.05 | 0.1201
298.15 K, 1000 kPa, x1 = 0.1 | 0.222
298.15 K, 1000 kPa, x1 = 0.15 | 0.3028
298.15 K, 1000 kPa, x1 = 0.2 | 0.3695
298.15 K, 1000 kPa, x1 = 0.25 | 0.4209
298.15 K, 1000 kPa, x1 = 0.3 | 0.4599
298.15 K, 1000 kPa, x1 = 0.35 | 0.4899
298.15 K, 1000 kPa, x1 = 0.4 | 0.5097
298.15 K, 1000 kPa, x1 = 0.45 | 0.5212
298.15 K, 1000 kPa, x1 = 0.5 | 0.5264
298.15 K, 1000 kPa, x1 = 0.55 | 0.5191
298.15 K, 1000 kPa, x1 = 0.6 | 0.5048
298.15 K, 1000 kPa, x1 = 0.65 | 0.4805
298.15 K, 1000 kPa, x1 = 0.7 | 0.4459
298.15 K, 1000 kPa, x1 = 0.75 | 0.4012
298.15 K, 1000 kPa, x1 = 0.8 | 0.3425
298.15 K, 1000 kPa, x1 = 0.95 | 0.1068
313.15 K, 100 kPa, x1 = 0.0483 | 0.1117
313.15 K, 100 kPa, x1 = 0.0998 | 0.2227
313.15 K, 100 kPa, x1 = 0.1507 | 0.3146
313.15 K, 100 kPa, x1 = 0.2011 | 0.388
313.15 K, 100 kPa, x1 = 0.2509 | 0.4473
313.15 K, 100 kPa, x1 = 0.3002 | 0.4924
313.15 K, 100 kPa, x1 = 0.3489 | 0.5277
313.15 K, 100 kPa, x1 = 0.4005 | 0.5535
313.15 K, 100 kPa, x1 = 0.4515 | 0.5679
313.15 K, 100 kPa, x1 = 0.4986 | 0.5718
313.15 K, 100 kPa, x1 = 0.5485 | 0.5651
313.15 K, 100 kPa, x1 = 0.6011 | 0.5502
313.15 K, 100 kPa, x1 = 0.6498 | 0.5244
313.15 K, 100 kPa, x1 = 0.7012 | 0.4887
313.15 K, 100 kPa, x1 = 0.7488 | 0.4419
313.15 K, 100 kPa, x1 = 0.8486 | 0.3137
313.15 K, 100 kPa, x1 = 0.9007 | 0.2235
313.15 K, 100 kPa, x1 = 0.9492 | 0.1156
313.15 K, 1000 kPa, x1 = 0.0483 | 0.1108
313.15 K, 1000 kPa, x1 = 0.0998 | 0.2231
313.15 K, 1000 kPa, x1 = 0.1507 | 0.3136
313.15 K, 1000 kPa, x1 = 0.201 | 0.3871
313.15 K, 1000 kPa, x1 = 0.2508 | 0.4465
313.15 K, 1000 kPa, x1 = 0.3 | 0.4932
313.15 K, 1000 kPa, x1 = 0.3487 | 0.5283
313.15 K, 1000 kPa, x1 = 0.4003 | 0.5534
313.15 K, 1000 kPa, x1 = 0.4513 | 0.5642
313.15 K, 1000 kPa, x1 = 0.4984 | 0.5678
313.15 K, 1000 kPa, x1 = 0.5516 | 0.5622
313.15 K, 1000 kPa, x1 = 0.6009 | 0.5476
313.15 K, 1000 kPa, x1 = 0.6497 | 0.5221
313.15 K, 1000 kPa, x1 = 0.7011 | 0.486
313.15 K, 1000 kPa, x1 = 0.7487 | 0.4405
313.15 K, 1000 kPa, x1 = 0.8486 | 0.3109
313.15 K, 1000 kPa, x1 = 0.9007 | 0.2209
313.15 K, 1000 kPa, x1 = 0.9491 | 0.1173
313.15 K, 10000 kPa, x1 = 0.0517 | 0.1095
313.15 K, 10000 kPa, x1 = 0.0992 | 0.212
313.15 K, 10000 kPa, x1 = 0.1499 | 0.303
313.15 K, 10000 kPa, x1 = 0.2 | 0.3768
313.15 K, 10000 kPa, x1 = 0.2497 | 0.4355
313.15 K, 10000 kPa, x1 = 0.2988 | 0.4813
313.15 K, 10000 kPa, x1 = 0.3508 | 0.5177
313.15 K, 10000 kPa, x1 = 0.3989 | 0.5407
313.15 K, 10000 kPa, x1 = 0.4499 | 0.5557
313.15 K, 10000 kPa, x1 = 0.5003 | 0.5598
313.15 K, 10000 kPa, x1 = 0.5501 | 0.5537
313.15 K, 10000 kPa, x1 = 0.5995 | 0.5393
313.15 K, 10000 kPa, x1 = 0.6515 | 0.5131
313.15 K, 10000 kPa, x1 = 0.6998 | 0.48
313.15 K, 10000 kPa, x1 = 0.7507 | 0.4325
313.15 K, 10000 kPa, x1 = 0.8011 | 0.3729
313.15 K, 10000 kPa, x1 = 0.8509 | 0.3054
313.15 K, 10000 kPa, x1 = 0.9001 | 0.2228
313.15 K, 10000 kPa, x1 = 0.9488 | 0.1259
328.15 K, 1000 kPa, x1 = 0.05 | 0.1293
328.15 K, 1000 kPa, x1 = 0.1 | 0.2339
328.15 K, 1000 kPa, x1 = 0.15 | 0.3279
328.15 K, 1000 kPa, x1 = 0.2 | 0.4052
328.15 K, 1000 kPa, x1 = 0.25 | 0.4674
328.15 K, 1000 kPa, x1 = 0.3 | 0.5156
328.15 K, 1000 kPa, x1 = 0.35 | 0.5557
328.15 K, 1000 kPa, x1 = 0.4 | 0.5822
328.15 K, 1000 kPa, x1 = 0.45 | 0.5962
328.15 K, 1000 kPa, x1 = 0.5 | 0.6034
328.15 K, 1000 kPa, x1 = 0.55 | 0.5992
328.15 K, 1000 kPa, x1 = 0.6 | 0.5851
328.15 K, 1000 kPa, x1 = 0.65 | 0.5559
328.15 K, 1000 kPa, x1 = 0.7 | 0.5128
328.15 K, 1000 kPa, x1 = 0.75 | 0.4679
328.15 K, 1000 kPa, x1 = 0.8 | 0.4034
328.15 K, 1000 kPa, x1 = 0.85 | 0.3257
328.15 K, 1000 kPa, x1 = 0.9 | 0.2299
328.15 K, 1000 kPa, x1 = 0.95 | 0.1163
